Holding throughout (experiment): NCI-60 cell line screen, 48 h
Assay [1] has as its system A498 renal.
In assay [2] the test system is PC-3 prostate.
Assay [3] has as its system EKVX NSCLC.
The test system of assay [4] is 786-0 renal.
Assay [5] deals with SNB-75 CNS.
The test system of assay [6] is UO-31 renal.
The test system of assay [7] is OVCAR-5 ovarian.
Assay [8] concerns COLO 205 colon.
The test system of assay [9] is HT29 colon.
The subject of assay [10] is MALME-3M melanoma.

Several values for one entry are separate records, joined by “and”; a condition that tells them apart may be missing. Equal entries are not always repeated.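 Growth conditions: 96-well plates. Treatment: test compound, 48 hours, 5 concentrations. Analysis: linear interpolation between bracketing concentrations; unreached endpoints set to highest concentration. GI50: concentration for 50% inhibition of growth. The concentration for full growth arrest is given as TGI.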

Consider `O=C(/C=C/c1cccnc1)/C=C/c1cccnc1`, for which the GI50 was 1.94 µM in assay [1]; 0.558 µM in assay [2]; 4.74 µM in assay [3]; 2.1 µM in assay [4]; 1.8 µM in assay [5]; 0.562 µM in [6]. Besides, the GI50 in assay [7] was 2.17 µM; in [8], 1.35 µM; in assay [9], 1.3 µM; in [10], 1.97 µM. The TGI in assay [1] is 4.66 µM; in assay [2], 3.01 µM; in assay [3], 21.6 µM; in assay [4], 6.03 µM; in assay [5], 7.33 µM; in assay [6], 1.89 µM. Further, the TGI in assay [7] was found to be 5.03 µM; in assay [8], 2.77 µM; in assay [9] it was 3.13 µM; in assay [10] it was 5.31 µM.

As for `COc1cc(-c2cn(-c3ccc(Cl)cc3)c(=O)n2-c2ccccc2)cc(OC)c1OC`, the GI50 is 18.7 µM in [1]; 69.9 µM in assay [2]; more than 100 µM in assay [3]; more than 83.1 µM in assay [4]; 5.51 µM in assay [5]; 89.3 µM in [6]. Also, the GI50 is more than 100 µM in [7], 51 µM in assay [8], 56.3 µM in assay [9] and more than 49.8 µM in assay [10]. The TGI in assay [1] is more than 92.4 µM; in assay [2], more than 100 µM; in [3] it was more than 100 µM; in [4], more than 100 µM; in assay [5], 41.8 µM; in [6] it was more than 100 µM. For the same compound, the TGI was more than 100 µM in [7], more than 100 µM in assay [8], more than 100 µM in [9] and more than 94.9 µM in assay [10].

In the case of `CCN1C(=O)N(CC)C2C1NN=c1s/c(=C\c3ccc([N+](=O)[O-])cc3)c(=O)n12` (configuration not stated), the GI50 in assay [1] was 0.172 µM; in assay [2], 0.387 µM; in assay [3], 0.893 µM; in assay [4], 0.621 µM; in [5], 0.181 µM; in [6], 0.903 µM. Further, the GI50 in assay [7] was 1.22 µM; in [8] it was 0.469 µM; in assay [9], 0.375 µM; in assay [10], 0.587 µM. Also, the TGI is 0.704 µM in assay [1]; more than 75.9 µM in assay [2]; more than 100 µM in assay [3]; more than 100 µM in [4]; 0.783 µM in assay [5]; more than 100 µM in [6]. Moreover, the TGI is more than 91.1 µM in assay [7], 11.8 µM in assay [8], more than 100 µM in assay [9] and more than 100 µM in assay [10].

`COC(=O)C1(C)CCc2c(ccc3ccccc23)C1=O` (configuration not stated): the TGI is 81 µM in [1]; more than 100 µM in assay [2]; more than 100 µM in [3]; more than 100 µM in assay [4]; more than 100 µM in assay [5]; more than 100 µM in assay [6]. Besides, the TGI in assay [7] is more than 100 µM; in assay [8] it was 42.2 µM; in [9], more than 100 µM; in [10], 69 µM.

In the case of `CC1OC(OC2C(OC3CCC4(C)C(CCC5(C)C4CC=C4C6CC(C)(C)CCC6(CO)C(O)CC45C)C3(C)C)OC(C(=O)O)C(OC3OC(COC4OC(CO)C(O)C(O)C4O)C(O)C(O)C3O)C2O)C(O)C(O)C1O` (configuration not stated), the GI50 in assay [1] was 13.2 µM; in assay [2] it was 1.56 µM; in assay [3] it was 2.41 µM; in assay [4], 1.15 µM; in [5], 11.2 µM; in [6] it was 5.45 µM. Further, the GI50 in [7] was 5.17 µM; in [8], 1.75 µM; in assay [9], 11.9 µM; in assay [10], 7.58 µM. The TGI came out at 23.9 µM in assay [1]; 3.92 µM in assay [2]; 11.5 µM in assay [3]; 3.01 µM in assay [4]; 23 µM in assay [5]; 15.9 µM in assay [6]. In addition, the TGI was 16.7 µM in [7], 4.39 µM in assay [8], 25.5 µM in [9] and 18.8 µM in [10].

Regarding `Oc1ccc(-c2nc(-c3ccc(F)cc3)c(-c3ccncc3)[nH]2)cc1`, the GI50 in assay [1] was 16.7 µM; in assay [2], 14.1 µM; in assay [3], 13.6 µM; in [4], 12.5 µM; in assay [5] it was 8.86 µM; in assay [6] it was 3.44 µM. For the same compound, the GI50 is 59.3 µM in assay [7], 4.77 µM in [8], 3.78 µM in assay [9] and 2.45 µM in assay [10]. The TGI in [1] is 48.5 µM; in assay [2], more than 100 µM; in assay [3], more than 100 µM; in [4], more than 100 µM; in assay [5] it was more than 100 µM; in [6], 20.2 µM. The TGI in [7] was more than 100 µM; in [8], 40.5 µM; in [9], more than 100 µM; in assay [10] it was 9.13 µM.

Turning to `O=[N+]([O-])c1ccc([I+]c2ccccc2)cc1`, the TGI was 6.49 µM and 5.48 µM in assay [1]; 11 µM and 5.21 µM in [2]; 32 µM and 3.32 µM in assay [3]; 3.28 µM in assay [5]; 11.9 µM in assay [6]; 17 µM and 3.34 µM in assay [7]. The TGI is 13.5 µM and 3.82 µM in assay [8]; 8.33 µM and 5.08 µM in [9]; 11.2 µM and 3.54 µM in assay [10]. In addition, the GI50 in [2] is 2.16 µM; in [3], 1.5 µM; in [4] it was 1.78 µM; in [5], 1.66 µM; in [7] it was 1.78 µM; in assay [8] it was 1.37 µM. Besides, the GI50 is 2.08 µM in assay [9] and 1.31 µM in assay [10].

Turning to `CC(=O)C(CN1CCOCC1)C(c1ccccc1)c1c(O)c2ccccc2oc1=O` (configuration not stated), the TGI in [1], in assay [2], in assay [3], in assay [4], in assay [5] and in [6] was more than 100 µM throughout. Also, the TGI in assay [7], in [8], in assay [9] and in [10] was more than 100 µM in each case.

The values above are taken from PubChem BioAssay (NCI).
